According to patent US12637437B2, “Herbicidal compounds” (SYNGENTA CROP PROTECTION AG, priority 2021, dated 2026):

Assays:
Type in all cases: in vivo
[1] = system: Amaranthus retoflexus (AMARE); test: Post-emergence herbicidal glasshouse test, AMARE; set-up: dose or concentration left out as unconfirmed; conditions: evaluated after 13 days, five-point scale
Description: (§1) Seeds of a variety of test species are sown in standard soil in pots (Lolium perenne (LOLPE), Amaranthus retoflexus (AMARE), Abutilon theophrasti (ABUTH), Setaria faberi (SETFA), Echinochloa crus-galli (ECHCG), Ipomoea hederacea (IPOHE)). After cultivation for one day (pre-emergence) or after 8 days cultivation (post-emergence) under controlled conditions in a glasshouse (at 24/16° C., day/night; 14 hours light; 65% humidity), the plants are sprayed with an aqueous spray solution derived from the formulation of the technical active ingredient in acetone/water (50:50) solution containing 0.5% Tween 20 (polyoxyethelyene sorbitan monolaurate, CAS RN 9005-64-5). Compounds are applied at 125 g/h unless otherwise indicated. The test plants are then grown in a glasshouse under controlled conditions in a glasshouse (at 24/16° C., day/night; 14 hours light; 65% humidity) and watered twice daily. After 13 days for pre and post-emergence, the test is evaluated for the percentage damage caused to the plant. The biological activities are shown in the following table on a five-point scale (5=80-100%; 4=60-79%; 3=40-59%; 2=20-39%; 1=0-19%). “—” denotes not tested on this species or data not captured.

Setaria faberi (SETFA) [2] = test: Post-emergence herbicidal glasshouse test, SETFA; conditions: 125 g/h, evaluated after 13 days, five-point scale
Description: as §1

[3] = system: Echinochloa crus-galli (ECHCG); test: Post-emergence herbicidal glasshouse test, ECHCG; conditions: 125 g/h, evaluated after 13 days, five-point scale
Description: as §1

[4] = system: Ipomoea hederacea (IPOHE); test: Post-emergence herbicidal glasshouse test, IPOHE; conditions: 125 g/h, evaluated after 13 days, five-point scale
Description: as §1

[5] = system: Amaranthus retoflexus (AMARE); test: Pre-emergence herbicidal glasshouse test, AMARE; conditions: 125 g/h, evaluated after 13 days, five-point scale
Description: as §1

Setaria faberi (SETFA) [6] = test: Pre-emergence herbicidal glasshouse test, SETFA; conditions: 125 g/h, evaluated after 13 days, five-point scale
Description: as §1

[7] = system: Echinochloa crus-galli (ECHCG); test: Pre-emergence herbicidal glasshouse test, ECHCG; conditions: 125 g/h, evaluated after 13 days, five-point scale
Description: as §1

[8] = system: Ipomoea hederacea (IPOHE); test: Pre-emergence herbicidal glasshouse test, IPOHE; conditions: 125 g/h, evaluated after 13 days, five-point scale
Description: as §1

SMILES	percentage damage caused to the plant, POST Application AMARE [1]	percentage damage caused to the plant, POST Application SETFA (Setaria faberi (SETFA) [2])	percentage damage caused to the plant, POST Application ECHCG [3]	percentage damage caused to the plant, POST Application IPOHE [4]	percentage damage caused to the plant, PRE Application AMARE [5]	percentage damage caused to the plant, PRE Application SETFA (Setaria faberi (SETFA) [6])	percentage damage caused to the plant, PRE Application ECHCG [7]	percentage damage caused to the plant, PRE Application IPOHE [8]
CCCOC(=O)Nc1c(OC(F)(F)F)ccc(C(=O)Nc2nnnn2C)c1Cl [Compound 1.014]	4 (4=60-79%)	5 (5=80-100%)	5 (5=80-100%)	4 (4=60-79%)	3 (3=40-59%)	4 (4=60-79%)	4 (4=60-79%)	2 (2=20-39%)
Cn1nnnc1NC(=O)c1ccc(OC(F)F)c(NC(=O)OCC(F)F)c1Cl [Compound 1.015]	5 (5=80-100%)	5 (5=80-100%)	5 (5=80-100%)	4 (4=60-79%)	5 (5=80-100%)	5 (5=80-100%)	5 (5=80-100%)	3 (3=40-59%)
CCCOC(=O)Nc1c(OC(F)F)ccc(C(=O)Nc2nnnn2C)c1Cl [Compound 1.016]	4 (4=60-79%)	5 (5=80-100%)	5 (5=80-100%)	3 (3=40-59%)	5 (5=80-100%)	3 (3=40-59%)	4 (4=60-79%)	2 (2=20-39%)
CC(C)OC(=O)Nc1c(OC(F)F)ccc(C(=O)Nc2nnnn2C)c1Cl [Compound 1.017]	5 (5=80-100%)	5 (5=80-100%)	5 (5=80-100%)	5 (5=80-100%)	5 (5=80-100%)	5 (5=80-100%)	5 (5=80-100%)	4 (4=60-79%)
COCCOC(=O)Nc1c(OC(F)F)ccc(C(=O)Nc2nnnn2C)c1Cl [Compound 1.018]	4 (4=60-79%)	5 (5=80-100%)	5 (5=80-100%)	4 (4=60-79%)	4 (4=60-79%)	3 (3=40-59%)	4 (4=60-79%)	2 (2=20-39%)
COCCCOC(=O)Nc1c(OC(F)(F)F)ccc(C(=O)Nc2nnnn2C)c1Cl [Compound 1.019]	5 (5=80-100%)	5 (5=80-100%)	5 (5=80-100%)	4 (4=60-79%)	3 (3=40-59%)	2 (2=20-39%)	5 (5=80-100%)	4 (4=60-79%)
Cn1nnnc1NC(=O)c1ccc(OC(F)(F)F)c(NC(=O)OC2CCOCC2)c1Cl [Compound 1.020]	5 (5=80-100%)	5 (5=80-100%)	5 (5=80-100%)	5 (5=80-100%)	5 (5=80-100%)	5 (5=80-100%)	5 (5=80-100%)	5 (5=80-100%)
CC(=O)N1CCC(OC(=O)Nc2c(OC(F)(F)F)ccc(C(=O)Nc3nnnn3C)c2Cl)CC1 [Compound 1.021]	4 (4=60-79%)	4 (4=60-79%)	5 (5=80-100%)	2 (2=20-39%)	3 (3=40-59%)	1 (1=0-19%)	1 (1=0-19%)	2 (2=20-39%)
COCCCOC(=O)Nc1c(OC(F)F)ccc(C(=O)Nc2nnnn2C)c1Cl [Compound 1.022]	5 (5=80-100%)	5 (5=80-100%)	5 (5=80-100%)	4 (4=60-79%)	5 (5=80-100%)	4 (4=60-79%)	4 (4=60-79%)	4 (4=60-79%)
CC(=O)N1CCC(OC(=O)Nc2c(OC(F)F)ccc(C(=O)Nc3nnnn3C)c2Cl)CC1 [Compound 1.023]	4 (4=60-79%)	2 (2=20-39%)	3 (3=40-59%)	1 (1=0-19%)	3 (3=40-59%)	1 (1=0-19%)	1 (1=0-19%)	2 (2=20-39%)
Cn1nnnc1NC(=O)c1ccc(OC(F)F)c(NC(=O)OCCC#N)c1Cl [Compound 1.024]	5 (5=80-100%)	5 (5=80-100%)	5 (5=80-100%)	4 (4=60-79%)	5 (5=80-100%)	3 (3=40-59%)	4 (4=60-79%)	5 (5=80-100%)
Cn1nnnc1NC(=O)c1ccc(OC(F)F)c(NC(=O)OC2CCOCC2)c1Cl [Compound 1.027]	5 (5=80-100%)	5 (5=80-100%)	5 (5=80-100%)	5 (5=80-100%)	4 (4=60-79%)	5 (5=80-100%)	4 (4=60-79%)	4 (4=60-79%)
CCOC(=O)N(CC)c1c(OC(F)(F)F)ccc(C(=O)Nc2nnnn2C)c1Cl [Compound 1.031]	5 (5=80-100%)	5 (5=80-100%)	5 (5=80-100%)	5 (5=80-100%)	5 (5=80-100%)	5 (5=80-100%)	5 (5=80-100%)	5 (5=80-100%)
